Measurements as given in the NIST ThermoML archive (doi:10.1016/j.jct.2012.05.030).

Experiments:
[1] = refractive index (other wavelength) (dimensionless); conditions: 100 kPa, Liquid, Wavelength=632.8 nm, Standard Abbe refractometry
[2] = refractive index (other wavelength) (dimensionless); xn = mol fraction of the nth substance listed; conditions: 100 kPa, Liquid, Wavelength=632.8 nm, Standard Abbe refractometry

N#Cc1ccccc1 [benzonitrile]
[1]
Conditions	refractive index
293.37 K	1.5252
293.99 K	1.5249
294.53 K	1.5247
295.09 K	1.5243
295.66 K	1.5241
296.11 K	1.5238
296.8 K	1.5236
297.16 K	1.5233
297.91 K	1.523
298.2 K	1.5228
298.8 K	1.5225
298.83 K	1.5226
299.26 K	1.5223
300.06 K	1.5219
300.12 K	1.5219
300.31 K	1.5218
301.13 K	1.5214
301.23 K	1.5214
301.35 K	1.5213
302.26 K	1.5209
302.31 K	1.5209
302.42 K	1.5208
302.65 K	1.5207
303.41 K	1.5203
304.49 K	1.5198
305.64 K	1.5192
306.89 K	1.5186
307.55 K	1.5183
307.88 K	1.5181

N#Cc1ccccc1 [benzonitrile] + CCCCCCCCCCCCCCC
[2], x1 = 1
Conditions	refractive index
293.37 K	1.5252
293.99 K	1.5249
294.53 K	1.5247
295.09 K	1.5243
295.66 K	1.5241
296.11 K	1.5238
296.8 K	1.5236
297.16 K	1.5233
297.91 K	1.523
298.2 K	1.5228
298.8 K	1.5225
298.83 K	1.5226
299.26 K	1.5223
300.06 K	1.5219
300.12 K	1.5219
300.31 K	1.5218
301.13 K	1.5214
301.23 K	1.5214
301.35 K	1.5213
302.26 K	1.5209
302.31 K	1.5209
302.42 K	1.5208
302.65 K	1.5207
303.41 K	1.5203
304.49 K	1.5198
305.64 K	1.5192
306.89 K	1.5186
307.88 K	1.5181

N#Cc1ccccc1 [benzonitrile] + CCCCCCCCCCCCCCCCC
[2], x1 = 1
Conditions	refractive index
293.37 K	1.5252
293.99 K	1.5249
294.53 K	1.5247
295.09 K	1.5243
295.66 K	1.5241
296.11 K	1.5238
296.8 K	1.5236
297.16 K	1.5233
297.91 K	1.523
298.2 K	1.5228
298.8 K	1.5225
298.83 K	1.5226
299.26 K	1.5223
300.06 K	1.5219
300.12 K	1.5219
300.31 K	1.5218
301.13 K	1.5214
301.23 K	1.5214
301.35 K	1.5213
302.26 K	1.5209
302.31 K	1.5209
302.42 K	1.5208
303.41 K	1.5203
304.49 K	1.5198
305.64 K	1.5192
306.89 K	1.5186
307.55 K	1.5183
307.88 K	1.5181

CCCCCCCCCCCCCCCCC [heptadecane]
[1]
Conditions	refractive index
298.76 K	1.4331
299.97 K	1.4326
301.18 K	1.4321
302.15 K	1.4317
303.27 K	1.4313
304.24 K	1.4309
305.29 K	1.4304
306.32 K	1.43
307.42 K	1.4296
307.55 K	1.4296

CCCCCCCCCCCCCCCCC [heptadecane] + N#Cc1ccccc1
[2]
Conditions	refractive index
298.76 K, x2 = 0	1.4331
299.97 K, x2 = 0	1.4326
301.18 K, x2 = 0	1.4321
302.15 K, x2 = 0	1.4317
303.27 K, x2 = 0	1.4313
304.24 K, x2 = 0	1.4309
305.29 K, x2 = 0	1.4304
306.32 K, x2 = 0	1.43
307.42 K, x2 = 0	1.4296
307.55 K, x2 = 0	1.4296
307.55 K, x2 = 0.1039	1.4325
307.55 K, x2 = 0.2138	1.4362
307.55 K, x2 = 0.3266	1.4411
307.55 K, x2 = 0.4187	1.4458
307.55 K, x2 = 0.5127	1.4515
307.55 K, x2 = 0.5975	1.4578
307.55 K, x2 = 0.7127	1.4688
307.55 K, x2 = 0.8046	1.4802
307.55 K, x2 = 0.9266	1.501

CCCCCCCCCCCCCCC [pentadecane]
[1]
Conditions	refractive index
293.37 K	1.4305
294.36 K	1.4301
295.64 K	1.4296
296.92 K	1.429
297.91 K	1.4286
299.12 K	1.4281
300.26 K	1.4276
301.51 K	1.4271
302.46 K	1.4267
302.65 K	1.4266

CCCCCCCCCCCCCCC [pentadecane] + N#Cc1ccccc1
[2]
Conditions	refractive index
293.37 K, x2 = 0	1.4305
294.36 K, x2 = 0	1.4301
295.64 K, x2 = 0	1.4296
296.92 K, x2 = 0	1.429
297.91 K, x2 = 0	1.4286
299.12 K, x2 = 0	1.4281
300.26 K, x2 = 0	1.4276
301.51 K, x2 = 0	1.4271
302.46 K, x2 = 0	1.4267
302.65 K, x2 = 0	1.4266
302.65 K, x2 = 0.1097	1.4304
302.65 K, x2 = 0.22	1.435
302.65 K, x2 = 0.3283	1.4404
302.65 K, x2 = 0.4141	1.4454
302.65 K, x2 = 0.4959	1.451
302.65 K, x2 = 0.5849	1.4582
302.65 K, x2 = 0.7005	1.4698
302.65 K, x2 = 0.8052	1.4832
302.65 K, x2 = 0.8983	1.4986
